# In ChEMBL document CHEMBL2385072, “Development of oleanane-type triterpenes as a new class of HCV entry inhibitors” (J Med Chem, 2013):
# Experiments:
# Conditions in all cases: HEK-293T
# [1] = system: Hepatitis C virus; test: Antiviral activity against pseudo HCV infected in human 293T cells assessed as inhibition of HCV pseudo particles entry at 10 uM after 72 hrs by luciferase reporter gene assay; format: functional, Hepacivirus hominis
# [2] = system: Hepatitis C virus; test: Antiviral activity against pseudo HCV infected in human 293T cells assessed as inhibition of HCV pseudo particles entry at 5 uM after 72 hrs by luciferase reporter gene assay; format: functional, Hepacivirus hominis
# [3] = system: Vesicular stomatitis virus; test: Antiviral activity against pseudo VSV infected in human 293T cells assessed as inhibition of vesicular stromatis G protein pseudo particles entry at 5 uM after 72 hrs by luciferase reporter gene assay; format: functional
# [4] = system: Vesicular stomatitis virus; test: Antiviral activity against pseudo VSV infected in human 293T cells assessed as inhibition of vesicular stromatis G protein pseudo particles entry at 1 uM after 72 hrs by luciferase reporter gene assay; format: functional
# [5] = system: Hepatitis C virus; test: Antiviral activity against pseudo HCV infected in human 293T cells assessed as inhibition of HCV pseudo particles entry at 1 uM after 72 hrs by luciferase reporter gene assay; format: functional, Hepacivirus hominis
SMILES,inhibition at 10 µM [1],inhibition at 5 µM [2],inhibition at 5 µM [3],inhibition at 1 µM [4],inhibition at 1 µM [5]
C[C@H]1[C@H](C)CC[C@]2(C(=O)O)CC[C@]3(C)C(=CC[C@@H]4[C@@]5(C)CC[C@H](O)C(C)(C)[C@@H]5CC[C@]43C)[C@H]12 [URSOLIC ACID],30%,–,–,–,–
CC1(C)CC[C@]2(C(=O)O)CC[C@]3(C)C(=CC[C@@H]4[C@@]5(C)CCC(=O)C(C)(C)[C@@H]5CC[C@]43C)[C@@H]2C1 [OLEANONIC ACID],0%,–,–,–,–
CC1(C)CC[C@]2(C(=O)O)CC[C@]3(C)C(=C[C@@H](O)[C@@H]4[C@@]5(C)CC[C@H](O)C(C)(C)[C@@H]5CC[C@]43C)[C@@H]2C1,50%,–,–,–,–
CC1(C)CC[C@]2(C(=O)O)[C@H](O)C[C@]3(C)C(=CC[C@@H]4[C@@]5(C)CC[C@H](O)[C@@](C)(CO)[C@@H]5CC[C@]43C)[C@@H]2C1,20%,–,–,–,–
CC1(C)CC[C@]2(C(=O)O)CC[C@]3(C)C(=CC[C@@H]4[C@@]5(C)CC[C@H](O)[C@@](C)(C=O)[C@@H]5CC[C@]43C)[C@@H]2C1,0%,–,–,–,–
CC1(C)CC[C@]2(C(=O)NCCCC[C@H](N)C(=O)O)CC[C@]3(C)C(=CC[C@@H]4[C@@]5(C)CC[C@H](O)C(C)(C)[C@@H]5CC[C@]43C)[C@@H]2C1,60%,–,–,–,–
CC(=O)O[C@H]1CC[C@]2(C)[C@H]3CC=C4[C@@H]5CC(C)(C)CC[C@]5(C(=O)O)CC[C@@]4(C)[C@]3(C)CC[C@H]2C1(C)C [ACETYL OLEANOLIC ACID],10%,–,–,–,–
CC1(C)CC[C@]2(C(=O)O)[C@H](O)C[C@]3(C)C(=CC[C@@H]4[C@@]5(C)CC[C@H](O)[C@@](C)(C(=O)O)[C@@H]5CC[C@]43C)[C@@H]2C1,0%,–,–,–,–
CC1(C)CC[C@]2(C(=O)O)[C@H](O)C[C@]3(C)C(=CC[C@@H]4[C@@]5(C)CC[C@H](O)[C@@](C)(C=O)[C@@H]5CC[C@]43C)[C@@H]2C1 [QUILLAIC ACID],0%,–,–,–,–
CC1(C)CC[C@]2(C(=O)O)CC[C@]3(C)C(=CC[C@@H]4[C@@]5(C)CC[C@H](OC6O[C@H](CO)[C@@H](O)[C@H](O)[C@H]6O)[C@@](C)(CO)[C@@H]5CC[C@]43C)[C@@H]2C1 (stereo partly drawn),0%,–,–,–,–
CC1(C)C[C@H]2C3=CC[C@@H]4[C@@]5(C)CC[C@H](O)C(C)(C)[C@@H]5CC[C@@]4(C)[C@]3(C)C[C@@H](O)[C@@]2(C(=O)O)C[C@@H]1O,15%,–,–,–,–
CC1(C)CC[C@]2(C(=O)NCc3cn([C@@H]4O[C@H](CO)[C@@H](O[C@@H]5O[C@H](CO)[C@@H](O)[C@H](O)[C@H]5O)[C@H](O)[C@H]4O)nn3)[C@H](O)C[C@]3(C)C(=CC[C@@H]4[C@@]5(C)CC[C@H](O)C(C)(C)[C@@H]5CC[C@]43C)[C@@H]2C1,–,11.8%,50.5%,26.6%,15.2%
CC1(C)CC[C@]2(C(=O)O)CC[C@]3(C)C(=CC[C@@H]4[C@@]5(C)CC[C@H](O)[C@@](C)(CO)[C@@H]5CC[C@]43C)[C@@H]2C1 [HEDERAGENIN],10%,–,–,–,–
CC1(C)CC[C@]2(C(=O)O[C@@H]3OC[C@@H](O)[C@H](O)[C@H]3O)[C@H](O)C[C@]3(C)C(=CC[C@@H]4[C@@]5(C)CC[C@H](O)C(C)(C)[C@@H]5CC[C@]43C)[C@@H]2C1,–,77.7%,13%,36.5%,33.8%
CC1(C)CC[C@]2(C(=O)O)CC[C@]3(C)[C@H](C(=O)C[C@@H]4[C@@]5(C)CC[C@H](O)C(C)(C)[C@@H]5CC[C@]43C)[C@@H]2C1,50%,–,–,–,–
CC1(C)CC[C@]2(C(=O)O)CC[C@]3(C)[C@H](C(O)C[C@@H]4[C@@]5(C)CC[C@H](O)C(C)(C)[C@@H]5CC[C@]43C)[C@@H]2C1 (stereo partly drawn),60%,–,–,–,–
CC1(C)CC[C@]2(C(=O)O)[C@H](O)C[C@]3(C)C(=CC[C@@H]4[C@@]5(C)CC[C@H](O)C(C)(C)[C@@H]5[C@H](O)C[C@]43C)[C@@H]2C1,5%,–,–,–,–
CC1(C)CC[C@]2(C(=O)O)CC[C@]3(C)C(=CC[C@@H]4[C@@]5(C)CC[C@H](O)C(C)(C)[C@@H]5[C@@H](O)C[C@]43C)[C@@H]2C1,0%,–,–,–,–

SMILES,inhibition at 10 µM [1],inhibition at 5 µM [2],inhibition at 5 µM [3],inhibition at 1 µM [4],inhibition at 1 µM [5]
CC1(C)CC[C@]2(C(=O)O)CC[C@]3(C)C(=CC[C@@H]4[C@@]5(C)CC[C@H](OC6O[C@H](CO)[C@@H](O)[C@H](O)[C@H]6O)C(C)(C)[C@@H]5CC[C@]43C)[C@@H]2C1 (stereo partly drawn),0%,–,–,–,–
COC(=O)[C@]12CCC(C)(C)C[C@H]1C1=CC[C@@H]3[C@@]4(C)CC[C@H](O)C(C)(C)[C@@H]4CC[C@@]3(C)[C@]1(C)CC2 [METHYL OLEANOLATE],60%,–,–,–,–
CC1(C)CC[C@]2(C(=O)O)[C@H](O)C[C@]3(C)C(=CC[C@@H]4[C@@]5(C)CC[C@H](O)C(C)(C)[C@@H]5C[C@H](O)[C@]43C)[C@@H]2C1,–,53.5%,5.6%,1.6%,30.4%
COC(=O)[C@]12CCC(C)(C)C[C@H]1C1=CC[C@@H]3[C@@]4(C)CC[C@H](O)C(C)(C)[C@@H]4CC[C@@]3(C)[C@]1(C)C[C@H]2OC,–,33.7%,9.9%,7.3%,17.5%
CC1(C)CC[C@]2(C(=O)NCc3cn([C@@H]4O[C@H](CO)[C@H](O)[C@H](O)[C@H]4O)nn3)[C@H](O)C[C@]3(C)C(=CC[C@@H]4[C@@]5(C)CC[C@H](O)C(C)(C)[C@@H]5CC[C@]43C)[C@@H]2C1,–,36.3%,25.3%,11.5%,16.6%
COC(=O)[C@]12CCC(C)(C)C[C@H]1[C@H]1C(=O)C[C@@H]3[C@@]4(C)CC[C@H](O)C(C)(C)[C@@H]4CC[C@@]3(C)[C@]1(C)C[C@H]2O,–,-8.7%,46.1%,42.7%,4.9%
CC1(C)CC[C@]2(C(=O)O)[C@H](OCc3ccccc3)C[C@]3(C)C(=CC[C@@H]4[C@@]5(C)CC[C@H](OCc6ccccc6)C(C)(C)[C@@H]5CC[C@]43C)[C@@H]2C1,–,28.2%,30.6%,28.8%,5.5%
C=C(C)[C@@H]1CC[C@]2(C(=O)O)CC[C@]3(C)[C@H](CC[C@@H]4[C@@]5(C)CC[C@H](O)C(C)(C)[C@@H]5CC[C@]43C)[C@@H]12 [BETULINIC ACID],75%,–,–,–,–
CC(=O)O[C@@H]1[C@@H](OC(C)=O)[C@H](OC(C)=O)CO[C@H]1n1cc(CNC(=O)[C@]23CCC(C)(C)C[C@H]2C2=CC[C@@H]4[C@@]5(C)CC[C@H](O)C(C)(C)[C@@H]5CC[C@@]4(C)[C@]2(C)C[C@H]3O)nn1,–,87.3%,47.7%,39.8%,35.9%
CC1(C)CC[C@]2(C(=O)O)CC[C@]3(C)C(=CC[C@@H]4[C@@]5(C)CC[C@H](O)[C@@](C)(C(=O)O)[C@@H]5CC[C@]43C)[C@@H]2C1,0%,–,–,–,–
CC1(C)CC[C@]2(C(=O)O)CC[C@]3(C)C(=CC[C@@H]4[C@@]5(C)C[C@@H](O)[C@H](O)C(C)(C)[C@@H]5CC[C@]43C)[C@@H]2C1 [MASLINIC ACID],0%,–,–,–,–
"CC1(C(=O)O)CC[C@]2(C)CC[C@]3(C)C(=CC(=O)[C@@H]4[C@@]5(C)CC[C@H](O)C(C)(C)[C@@H]5CC[C@]43C)[C@@H]2C1 (single isomer, unassigned) [ENOXOLONE]",5%,–,–,–,–
CC1(C)[C@@H](O)CC[C@]2(C)[C@H]3CC=C4[C@@H]5C[C@](C)(CO)CC[C@]5(C(=O)O)[C@H](O)C[C@@]4(C)[C@]3(C)CC[C@@H]12,90%,–,–,–,–
CC1(C)CC[C@]2(C(=O)O)CC[C@]3(C)C(=CC[C@@H]4[C@@]5(C)C[C@@H](O)[C@H](O)[C@@](C)(CO)[C@@H]5CC[C@]43C)[C@@H]2C1 [ARJUNOLIC ACID],0%,–,–,–,–
CC(=O)OC[C@H]1O[C@@H](n2cc(CNC(=O)[C@]34CCC(C)(C)C[C@H]3C3=CC[C@@H]5[C@@]6(C)CC[C@H](O)C(C)(C)[C@@H]6CC[C@@]5(C)[C@]3(C)C[C@H]4O)nn2)[C@H](OC(C)=O)[C@@H](OC(C)=O)[C@@H]1OC(C)=O,–,89.7%,12.5%,-9.1%,20.3%
CC(=O)OC[C@H]1O[C@@H](n2cc(CNC(=O)[C@]34CCC(C)(C)C[C@H]3C3=CC[C@@H]5[C@@]6(C)CC[C@H](O)C(C)(C)[C@@H]6CC[C@@]5(C)[C@]3(C)C[C@H]4O)nn2)[C@H](OC(C)=O)[C@@H](OC(C)=O)[C@@H]1O[C@@H]1O[C@H](COC(C)=O)[C@@H](OC(C)=O)[C@H](OC(C)=O)[C@H]1OC(C)=O,–,64.8%,38.8%,36.8%,11.9%
CC(=O)OC[C@H]1O[C@@H](n2cc(CNC(=O)[C@]34CCC(C)(C)C[C@H]3C3=CC[C@@H]5[C@@]6(C)CC[C@H](O)C(C)(C)[C@@H]6CC[C@@]5(C)[C@]3(C)C[C@H]4O)nn2)[C@@H](OC(C)=O)[C@@H](OC(C)=O)[C@@H]1OC(C)=O,–,81.5%,14.7%,-5.3%,21.8%
